≈ marks a conversion by molar mass, not a printed value. Where two headings read alike, the source gives them in different places.
Columns and labels:
[1] = test system: MRSA ATCC BAA 1556 (USA300); assay: In-house broth microdilution MIC screening; type: cell-based, Staphylococcus aureus; conditions: Staphylococcus aureus; broth microdilution; read-out: MIC Value, MRSA ATCC BAA 1556
MSSA ATCC 29213 = assay: In-house broth microdilution MIC screening; type: cell-based; conditions: Staphylococcus aureus; broth microdilution; read-out: MIC Value, MSSA ATCC 29213
[2] = Single-dose nebulized nose-only inhalation PK in healthy rats; type: in vivo, rat; conditions: male, Sprague Dawley, rat, in vivo; for Kp / Lung AUC0-∞ / Lung Cmax / Lung t1/2 / Plasma Cmax: inhaled or intranasal
Description: Rats were acclimated in the study facility for approximately 1 week prior to study start. Ten or eleven rats per cohort were loaded into the chamber at the time of dosing. […] An additional airflow set to 6 liters/min was admixed with the nebulizer output to further direct the test articles to the animals. […] The remaining port on the chamber was fit with an aerosol sampling filter for dose determination over a 5 min sampling period. The average dose delivered to the nose of each animal was calculated using an algorithm that was previously described ([49]). […] Animals were euthanized for collection of whole lungs and plasma at time points ranging from immediate postdose (IPD; approximately 30 min after dosing for nebulization) to 168 h postdose (7 days). Drugs were extracted from tissues using customized protein precipitation methods with an appropriate internal standard for each compound and transferred for analysis by LC-MS/MS (Sciex API4500 or API6500+ mass spectrometer [Sciex, Framingham, MA]). GraphPad Prism (La Jolla, CA) was used for statistical analyses and data plotting. […] The data were applied to a noncompartmental analysis after extravascular dosing input and fit to a linear up/log down model. Statistical analysis of in vitro intracellular and biofilm activity was based on a two-way ANOVA with a Bonferroni post test. In vivo statistical analysis was based on the Kolmogorov-Smirnov test.

[3] = type: physicochemical; conditions: pH 8
Description: 40 to the primary metabolite.
41 percent degradation is defined as follows:
[LLLLPPLL ] + [MMPPPPDDMM DDMMDDPPPP ]
45 Enzymes studied include :
108 Table S1: Enzyme hydrolysis of RV62 and RV94 was measured as a function of time in PBS (pH 8) at 37
109 °C. Control samples in the absence of enzyme were included as […]. Samples were analyzed
110 by HPLC detecting the parent RV derivative (RV62 or RV94).
RV Percent RV derivative remaining in HPLC chromatograph, % […]

| Compound | MIC [1] | MIC (MSSA ATCC 29213) | Pulmonary dose [2] | Time to full conversion to hydrolysis product in the lung [2] | Drug lung level at 120 h [2] | Primary hydrolysis byproduct lung level at 120 h [2] | Kp [2] | Lung AUC0-∞ [2] | Lung Cmax [2] | Lung t1/2 [2] | Plasma Cmax [2] | Lung retention of primary hydrolysis by-product [2] | Percent RV derivative remaining in HPLC chromatograph ([3]; 0 h) | Percent RV derivative remaining in HPLC chromatograph ([3]; 0.5 h) | Percent RV derivative remaining in HPLC chromatograph ([3]; 1 h) | Percent RV derivative remaining in HPLC chromatograph ([3]; 2 h) |
| --- | --- | --- | --- | --- | --- | --- | --- | --- | --- | --- | --- | --- | --- | --- | --- | --- |
| CCCCCCCCCCCCCC(=O)OCCNC1(C)CC(OC2C(Oc3c4cc5cc3Oc3ccc(cc3Cl)C(O)C3NC(=O)C(NC(=O)C5NC(=O)C(CC(N)=O)NC(=O)C(NC(=O)C(CC(C)C)NC)C(O)c5ccc(c(Cl)c5)O4)c4ccc(O)c(c4)-c4c(O)cc(O)cc4C(C(=O)O)NC3=O)OC(CO)C(O)C2O)OC(C)C1O (centres unmarked) [RV88] | 0.125 µg/mL (≈ 0.0734 µM) | 0.125 µg/mL (≈ 0.0734 µM) | 0.12 mg/kg | ≤ 24 h | 1.5% | 71% | 1350 | 360 µg·h/g | 26 µg/g | 21 h | 20 ng/mL |  |  |  |  |  |
| CNC(CC(C)C)C(=O)NC1C(=O)NC(CC(N)=O)C(=O)NC2C(=O)NC3C(=O)NC(C(=O)NC(C(=O)O)c4cc(O)cc(O)c4-c4cc3ccc4O)C(O)c3ccc(c(Cl)c3)Oc3cc2cc(c3OC2OC(CO)C(O)C(O)C2OC2CC(C)(NCCO)C(O)C(C)O2)Oc2ccc(cc2Cl)C1O (centres unmarked) [RV80] | 2 µg/mL (≈ 1.34 µM) | 1.5 µg/mL (≈ 1 µM) |  |  |  |  |  |  |  |  |  | sustained in the lung throughout the course of the 120 h experiments |  |  |  |  |
| CCCCCCCCCCCC(=O)NCCNC1(C)CC(OC2C(Oc3c4cc5cc3Oc3ccc(cc3Cl)C(O)C3NC(=O)C(NC(=O)C5NC(=O)C(CC(N)=O)NC(=O)C(NC(=O)C(CC(C)C)NC)C(O)c5ccc(c(Cl)c5)O4)c4ccc(O)c(c4)-c4c(O)cc(O)cc4C(C(=O)O)NC3=O)OC(CO)C(O)C2O)OC(C)C1O (centres unmarked) [RV62] | 0.016 µg/mL (≈ 0.00955 µM) | 0.016 µg/mL (≈ 0.00955 µM) | 0.15 mg/kg | ≤ 24 h | 0.1% | 107% | 1550 | 317 µg·h/g | 30 µg/g | 11 h | 20 ng/mL |  | 97.14% | 97.14% | 97.38% | 97.07% |
| CNC(CC(C)C)C(=O)NC1C(=O)NC(CC(N)=O)C(=O)NC2C(=O)NC3C(=O)NC(C(=O)NC(C(=O)O)c4cc(O)cc(O)c4-c4cc3ccc4O)C(O)c3ccc(c(Cl)c3)Oc3cc2cc(c3OC2OC(CO)C(O)C(O)C2OC2CC(C)(NCCN)C(O)C(C)O2)Oc2ccc(cc2Cl)C1O (centres unmarked) [RV82] | 2 µg/mL (≈ 1.34 µM) | 2 µg/mL (≈ 1.34 µM) |  |  |  |  |  |  |  |  |  | sustained in the lung throughout the course of the 120 h experiments |  |  |  |  |
